These results are taken from BindingDB's records for patent US9150581 (Research Triangle Institute, 2015).

This experiment deals with Isoform Alpha-4-2 of Neuronal acetylcholine receptor subunit alpha-4 (Alpha-4-2) (Rattus norvegicus, UniProt P09483). As to the kind of experiment: Inhibition Assay.
Chain of Isoform Alpha-4-2 of Neuronal acetylcholine receptor subunit alpha-4 (Alpha-4-2) (P09483 as listed by the source): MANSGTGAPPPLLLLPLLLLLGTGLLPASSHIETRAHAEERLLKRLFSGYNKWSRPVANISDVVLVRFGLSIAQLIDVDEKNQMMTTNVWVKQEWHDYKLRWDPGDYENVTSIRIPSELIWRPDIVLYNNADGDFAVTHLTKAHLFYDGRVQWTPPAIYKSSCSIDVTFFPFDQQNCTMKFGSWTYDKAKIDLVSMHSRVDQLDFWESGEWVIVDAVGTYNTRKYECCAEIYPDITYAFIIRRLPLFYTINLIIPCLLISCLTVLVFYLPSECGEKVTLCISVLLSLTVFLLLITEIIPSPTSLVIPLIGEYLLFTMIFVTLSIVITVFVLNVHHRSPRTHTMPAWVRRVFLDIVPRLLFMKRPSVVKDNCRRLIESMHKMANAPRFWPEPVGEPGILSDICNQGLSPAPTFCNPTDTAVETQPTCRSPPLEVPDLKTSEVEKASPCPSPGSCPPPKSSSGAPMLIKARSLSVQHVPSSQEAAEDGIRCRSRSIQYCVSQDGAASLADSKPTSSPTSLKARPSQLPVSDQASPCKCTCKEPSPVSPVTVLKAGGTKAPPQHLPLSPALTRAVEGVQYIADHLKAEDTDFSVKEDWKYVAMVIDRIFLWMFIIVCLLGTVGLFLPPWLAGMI

Take `Fc1ncc(C2CC3CCC2N3)cc1-c1cccc(Cl)c1` (racemic) [US9150581, RTI-7527-98]: the affinity corresponds to a Ki of 0.073 nM.

`Fc1ncc(C2CC3CCC2N3)cc1-c1ccccc1` (stereo not drawn) [US9150581, RTI-7527-(-)-47] gave a Ki of 0.26 nM.

In general, Ki refers to the equilibrium dissociation constant of an inhibitor or competing ligand from its target.
